Measured values published in publication PMC5218480 (PLoS ONE, 2017).

Tested on: MV-4-11 cells
Experiment: Gene expression microarray analysis (Affymetrix PrimeView) and GSEA
Format: cell-based, human
Design: RFU PODN (11730768_x_at) / Fold change /veh PODN (11730768_x_at) / RFU LINC00158 (11744669_a_at) / Fold change /veh LINC00158 (11744669_a_at) / RFU DUSP10 (11751237_a_at) / Fold change /veh DUSP10 (11751237_a_at) / RFU ID3 (11757404_x_at) / Fold change /veh ID3 (11757404_x_at) / RFU PLEKHG5 (11737974_s_at) / Fold change /veh PLEKHG5 (11737974_s_at) / RFU LRRC4B (11730491_at) / Fold change /veh LRRC4B (11730491_at) / RFU GIMAP4 (11747438_a_at) / Fold change /veh GIMAP4 (11747438_a_at) / RFU KRT8 (11758183_x_at) / Fold change /veh KRT8 (11758183_x_at) / RFU CNN1 (11734310_a_at) / Fold change /veh CNN1 (11734310_a_at) / RFU VPS37D (11726825_at) / Fold change /veh VPS37D (11726825_at) / RFU C10orf10 (11716522_x_at) / Fold change /veh C10orf10 (11716522_x_at) / RFU KIR2DL2 /// KIR2DL4 /// KIR2DL5A /// KIR2DL5B /// KIR2DS1 /// KIR2DS2 /// KIR2DS3 /// KIR2DS4 /// KIR3DL3 /// KIR3DL3 /// KIR3DS1 (11738374_at) / Fold change /veh KIR2DL2 /// KIR2DL4 /// KIR2DL5A /// KIR2DL5B /// KIR2DS1 /// KIR2DS2 /// KIR2DS3 /// KIR2DS4 /// KIR3DL3 /// KIR3DL3 /// KIR3DS1 (11738374_at) / RFU C1QL1 (11718748_at) / Fold change /veh C1QL1 (11718748_at) / RFU TMPRSS4 (11747572_a_at) / Fold change /veh TMPRSS4 (11747572_a_at) / RFU HAMP (11756126_x_at) / Fold change /veh HAMP (11756126_x_at) / RFU RNFT2 (11725882_a_at) / Fold change /veh RNFT2 (11725882_a_at) / RFU NR4A2 (11747474_a_at) / Fold change /veh NR4A2 (11747474_a_at) / RFU ABCC12 (11746883_a_at) / Fold change /veh ABCC12 (11746883_a_at) / RFU TMEM136 (11760407_x_at) / Fold change /veh TMEM136 (11760407_x_at) / RFU CLDN22 /// WWC2 (11732394_at) / Fold change /veh CLDN22 /// WWC2 (11732394_at) / RFU HLA-DPB1 (11760878_x_at) / Fold change /veh HLA-DPB1 (11760878_x_at) / RFU SPINT1 (11716480_a_at) / Fold change /veh SPINT1 (11716480_a_at) / RFU GAP43 (11754022_s_at) / Fold change /veh GAP43 (11754022_s_at) / RFU A4GNT (11735810_at) / Fold change /veh A4GNT (11735810_at) / RFU PRB3 (11715151_x_at) / Fold change /veh PRB3 (11715151_x_at) / RFU TUBB4B (11761932_at) / Fold change /veh TUBB4B (11761932_at) / RFU CAPN14 (11732068_a_at) / Fold change /veh CAPN14 (11732068_a_at) / RFU TMCC2 (11721928_a_at) / Fold change /veh TMCC2 (11721928_a_at) / RFU IRGQ (11745062_a_at) / Fold change /veh IRGQ (11745062_a_at) / RFU FAM174B (11720279_a_at) / Fold change /veh FAM174B (11720279_a_at) / RFU TMPRSS4 (11748680_a_at) / Fold change /veh TMPRSS4 (11748680_a_at) / RFU FAM212B (11763350_a_at) / Fold change /veh FAM212B (11763350_a_at) / RFU PLEKHG5 (11743358_a_at) / Fold change /veh PLEKHG5 (11743358_a_at) / RFU ZSCAN30 (11745921_a_at) / Fold change /veh ZSCAN30 (11745921_a_at) / RFU CMKLR1 (11741424_a_at) / Fold change /veh CMKLR1 (11741424_a_at) / RFU LOC101060620 /// MAPK8IP1 (11723275_at) / Fold change /veh LOC101060620 /// MAPK8IP1 (11723275_at) / RFU SPTSSB (11747773_x_at) / Fold change /veh SPTSSB (11747773_x_at) / RFU PRSS12 (11739890_at) / Fold change /veh PRSS12 (11739890_at) / RFU BIN1 (11741810_x_at) / Fold change /veh BIN1 (11741810_x_at) / RFU WNT11 (11732464_a_at) / Fold change /veh WNT11 (11732464_a_at) / RFU C10orf10 (11716521_a_at) / Fold change /veh C10orf10 (11716521_a_at) / RFU C5orf56 (11738089_at) / Fold change /veh C5orf56 (11738089_at) / RFU CYB561 (11721691_x_at) / Fold change /veh CYB561 (11721691_x_at) / RFU ANKRD19P (11752326_a_at) / Fold change /veh ANKRD19P (11752326_a_at) / RFU OR2T12 /// OR2T33 /// OR2T8 (11738714_s_at) / Fold change /veh OR2T12 /// OR2T33 /// OR2T8 (11738714_s_at) / RFU VCAN (11748164_a_at) / Fold change /veh VCAN (11748164_a_at) / RFU JSRP1 (11732532_at) / Fold change /veh JSRP1 (11732532_at) / RFU KRTAP10-11 (11738290_x_at) / Fold change /veh KRTAP10-11 (11738290_x_at) / RFU MYO3A (11730013_a_at) / Fold change /veh MYO3A (11730013_a_at) / RFU EBF3 (11725865_a_at) / Fold change /veh EBF3 (11725865_a_at) / RFU CAMK2N1 (11719241_x_at) / Fold change /veh CAMK2N1 (11719241_x_at) / RFU C5orf56 (11738088_a_at) / Fold change /veh C5orf56 (11738088_a_at) / RFU OLFML3 (11715873_a_at) / Fold change /veh OLFML3 (11715873_a_at) / RFU LOC100653217 /// NTM (11731650_a_at) / Fold change /veh LOC100653217 /// NTM (11731650_a_at) / RFU MAPK11 (11762145_a_at) / Fold change /veh MAPK11 (11762145_a_at) / RFU FIZ1 (11724087_x_at) / Fold change /veh FIZ1 (11724087_x_at) / RFU OASL (11726364_x_at) / Fold change /veh OASL (11726364_x_at) / RFU SOX15 (11748057_x_at) / Fold change /veh SOX15 (11748057_x_at) / RFU CD79A (11719716_a_at) / Fold change /veh CD79A (11719716_a_at) / RFU HIST1H1D (11736915_at) / Fold change /veh HIST1H1D (11736915_at) / RFU CASKIN2 (11723855_a_at) / Fold change /veh CASKIN2 (11723855_a_at) / RFU LOC730098 (11760151_x_at) / Fold change /veh LOC730098 (11760151_x_at) / RFU OR4N2 (11742367_at) / Fold change /veh OR4N2 (11742367_at) / RFU PRRT2 (11749266_a_at) / Fold change /veh PRRT2 (11749266_a_at) / RFU SNX32 (11753110_a_at) / Fold change /veh SNX32 (11753110_a_at) / RFU CDHR5 (11726645_a_at) / Fold change /veh CDHR5 (11726645_a_at) / RFU RCAN1 (11760418_a_at) / Fold change /veh RCAN1 (11760418_a_at) / RFU FAM167A (11723789_a_at) / Fold change /veh FAM167A (11723789_a_at) / RFU FAM26E (11764081_at) / Fold change /veh FAM26E (11764081_at) / RFU ISYNA1 (11749810_s_at) / Fold change /veh ISYNA1 (11749810_s_at) / RFU ACY1 (11761880_at) / Fold change /veh ACY1 (11761880_at) / RFU 11764098_at / Fold change /veh 11764098_at / RFU SAMD14 (11745864_x_at) / Fold change /veh SAMD14 (11745864_x_at) / RFU NPB (11741838_a_at) / Fold change /veh NPB (11741838_a_at) / RFU TMPRSS6 (11731388_a_at) / Fold change /veh TMPRSS6 (11731388_a_at) / RFU KRTAP10-2 (11738614_at) / Fold change /veh KRTAP10-2 (11738614_at) / RFU ARHGAP8 /// PRR5-ARHGAP8 (11727945_x_at) / Fold change /veh ARHGAP8 /// PRR5-ARHGAP8 (11727945_x_at) / RFU KRTAP5-7 /// NADSYN1 (11734609_at) / Fold change /veh KRTAP5-7 /// NADSYN1 (11734609_at) / RFU RASL12 (11751679_a_at) / Fold change /veh RASL12 (11751679_a_at) / RFU CDKN2B (11736163_a_at) / Fold change /veh CDKN2B (11736163_a_at) / RFU PRF1 (11729649_at) / Fold change /veh PRF1 (11729649_at) / RFU, ZNF638 /// ZNF638-IT1 / Fold change vs veh, ZNF638 /// ZNF638-IT1 / RFU, PANK3 / Fold change vs veh, PANK3 / RFU, SH3YL1 / Fold change vs veh, SH3YL1 / RFU, ZEB2 / Fold change vs veh, ZEB2 / RFU, NRIP1 / Fold change vs veh, NRIP1 / RFU, PTTG1IP / Fold change vs veh, PTTG1IP / RFU, CAPN2 / Fold change vs veh, CAPN2 / RFU, MED14 / Fold change vs veh, MED14 / RFU, SNORA58 / Fold change vs veh, SNORA58 / RFU, C1orf63 / Fold change vs veh, C1orf63 / RFU, LRRFIP1 / Fold change vs veh, LRRFIP1 / RFU, NDUFAF7 / Fold change vs veh, NDUFAF7 / RFU, SLC12A2 / Fold change vs veh, SLC12A2 / RFU, IBTK / Fold change vs veh, IBTK / RFU, ESF1 / Fold change vs veh, ESF1 / Fold change vs veh, TMEM50B / RFU, TAOK1 / Fold change vs veh, TAOK1 / RFU, ACBD3 / Fold change vs veh, ACBD3 / RFU, TMA16 / Fold change vs veh, TMA16 / RFU, RWDD3 / Fold change vs veh, RWDD3 / RFU, BCAT1 / Fold change vs veh, BCAT1 / RFU, EDEM3 / Fold change vs veh, EDEM3 / RFU, TMEM33 / Fold change vs veh, TMEM33 / RFU, WDR75 / Fold change vs veh, WDR75 / RFU, AHCTF1 / Fold change vs veh, AHCTF1 / RFU, TFRC / Fold change vs veh, TFRC / RFU, ZDHHC17 / Fold change vs veh, ZDHHC17 / RFU, NOM1 / Fold change vs veh, NOM1 / RFU, ARL8B / Fold change vs veh, ARL8B / RFU, ZBTB11 / Fold change vs veh, ZBTB11 / RFU, TAMM41 / Fold change vs veh, TAMM41 / RFU, KIAA1704 /// LOC100996395 / Fold change vs veh, KIAA1704 /// LOC100996395 / RFU, ING1 / Fold change vs veh, ING1 / RFU, TRMT61B / Fold change vs veh, TRMT61B / RFU, FUBP3 / Fold change vs veh, FUBP3 / RFU, TP53 / Fold change vs veh, TP53 / RFU, TNKS2 / Fold change vs veh, TNKS2 / RFU, ZFP14 / Fold change vs veh, ZFP14 / RFU, ACTR2 / Fold change vs veh, ACTR2 / RFU, PPP3R1 / Fold change vs veh, PPP3R1 / RFU, PIK3R1 / Fold change vs veh, PIK3R1 / RFU, HNRNPA1 / Fold change vs veh, HNRNPA1 / RFU, RNF170 / Fold change vs veh, RNF170 / RFU, ZNF28 / Fold change vs veh, ZNF28 / RFU, RNGTT / Fold change vs veh, RNGTT / RFU, OGT / Fold change vs veh, OGT / RFU, BRD1 / Fold change vs veh, BRD1 / RFU, MARS / Fold change vs veh, MARS / RFU, ZNF655 / Fold change vs veh, ZNF655 / RFU, FAHD1 / Fold change vs veh, FAHD1 / RFU, BDP1 / Fold change vs veh, BDP1 / RFU, LRRCC1 / Fold change vs veh, LRRCC1 / RFU, ARID1A / Fold change vs veh, ARID1A / RFU, ZNF146 / Fold change vs veh, ZNF146 / RFU, ZNF330 / Fold change vs veh, ZNF330 / RFU, GPN3 / Fold change vs veh, GPN3 / RFU, C9orf123 / Fold change vs veh, C9orf123 / RFU, N4BP2L2 / Fold change vs veh, N4BP2L2 / RFU, ARFIP1 / Fold change vs veh, ARFIP1 / RFU, FAM179B / Fold change vs veh, FAM179B / RFU, BCL10 / Fold change vs veh, BCL10 / RFU, UHRF1BP1L / Fold change vs veh, UHRF1BP1L / RFU, BET1 / Fold change vs veh, BET1 / RFU, CNOT2 / Fold change vs veh, CNOT2 / RFU, ZNF268 / Fold change vs veh, ZNF268 / Fold change vs veh, ZNF507 / RFU, DGCR2 / Fold change vs veh, DGCR2 / RFU, WDSUB1 / Fold change vs veh, WDSUB1 / Fold change vs veh, HSP90B1 /// MIR3652 / RFU, ADSS / Fold change vs veh, ADSS / RFU, GK / Fold change vs veh, GK / RFU, ZNF148 / Fold change vs veh, ZNF148 / RFU, TAF9 / Fold change vs veh, TAF9 / RFU, SLC1A5 / Fold change vs veh, SLC1A5 / RFU, SLMO2 / Fold change vs veh, SLMO2 / RFU, ABCC4 / Fold change vs veh, ABCC4 / RFU, LOC101060439 /// RAP1B / Fold change vs veh, LOC101060439 /// RAP1B / RFU, RFX7 / Fold change vs veh, RFX7 / RFU, GTPBP10 / Fold change vs veh, GTPBP10 / RFU, CNEP1R1 / Fold change vs veh, CNEP1R1 / RFU, BIVM-ERCC5 /// ERCC5 / Fold change vs veh, BIVM-ERCC5 /// ERCC5 / RFU, ILF3 / Fold change vs veh, ILF3 / RFU 11762660_at / Fold change /veh 11762660_at / RFU VCAN (11757783_s_at) / Fold change /veh VCAN (11757783_s_at) / RFU DDX43 (11728927_at) / Fold change /veh DDX43 (11728927_at) / RFU KRT8 (11758188_x_at) / Fold change /veh KRT8 (11758188_x_at) / RFU NKD1 (11759106_at) / Fold change /veh NKD1 (11759106_at) / RFU SRD5A1 (11742802_a_at) / Fold change /veh SRD5A1 (11742802_a_at) / RFU TPSAB1 /// TPSB2 (11721975_s_at) / Fold change /veh TPSAB1 /// TPSB2 (11721975_s_at) / RFU GSTM3 (11746129_a_at) / Fold change /veh GSTM3 (11746129_a_at) / RFU IL23R (11737362_x_at) / Fold change /veh IL23R (11737362_x_at) / RFU TMEM51 (11727254_a_at) / Fold change /veh TMEM51 (11727254_a_at) / RFU PIWIL2 (11732686_x_at) / Fold change /veh PIWIL2 (11732686_x_at) / RFU ORM1 (11744905_x_at) / Fold change /veh ORM1 (11744905_x_at) / RFU CCDC152 (11743942_at) / Fold change /veh CCDC152 (11743942_at) / RFU ECM1 (11717891_a_at) / Fold change /veh ECM1 (11717891_a_at) / RFU IL23R (11748794_a_at) / Fold change /veh IL23R (11748794_a_at) / RFU TNFAIP8L3 (11732012_x_at) / Fold change /veh TNFAIP8L3 (11732012_x_at) / RFU MBOAT4 (11741988_at) / Fold change /veh MBOAT4 (11741988_at) / RFU 11764193_at / Fold change /veh 11764193_at / RFU TMEM53 (11763286_at) / Fold change /veh TMEM53 (11763286_at) / RFU MAGEB2 (11727129_at) / Fold change /veh MAGEB2 (11727129_at) / RFU TMEM200A (11744735_a_at) / Fold change /veh TMEM200A (11744735_a_at) / RFU CCDC152 (11751479_a_at) / Fold change /veh CCDC152 (11751479_a_at) / RFU FAM211A (11726209_a_at) / Fold change /veh FAM211A (11726209_a_at) / RFU RGS16 (11746705_a_at) / Fold change /veh RGS16 (11746705_a_at) / RFU VCAN (11755009_s_at) / Fold change /veh VCAN (11755009_s_at) / RFU RHOB (11743442_s_at) / Fold change /veh RHOB (11743442_s_at) / RFU RGS16 (11720943_a_at) / Fold change /veh RGS16 (11720943_a_at) / RFU RGS16 (11720944_at) / Fold change /veh RGS16 (11720944_at) / RFU, VPS4B / Fold change vs veh, VPS4B / RFU, CREB1 / Fold change vs veh, CREB1 / RFU, DNAJC13 / Fold change vs veh, DNAJC13 / RFU, GNAQ / Fold change vs veh, GNAQ / RFU, CDK5R1 / Fold change vs veh, CDK5R1 / RFU, ZRANB3 / Fold change vs veh, ZRANB3 / RFU, CUL4A / Fold change vs veh, CUL4A / RFU, CCNY / Fold change vs veh, CCNY / RFU, UFL1 / Fold change vs veh, UFL1 / RFU, COG3 / Fold change vs veh, COG3 / RFU, DIAPH2 / Fold change vs veh, DIAPH2 / RFU, SKA2 / Fold change vs veh, SKA2 / RFU, AFF3 / Fold change vs veh, AFF3 / RFU, LMF1 / Fold change vs veh, LMF1 / RFU, IPO11 / Fold change vs veh, IPO11 / RFU, DFFB / Fold change vs veh, DFFB / RFU, FOXP1 / Fold change vs veh, FOXP1 / RFU, CARD8 / Fold change vs veh, CARD8 / RFU, STRN3 / Fold change vs veh, STRN3 / RFU, ADK / Fold change vs veh, ADK / RFU, RASSF2 / Fold change vs veh, RASSF2 / RFU, WIPF1 / Fold change vs veh, WIPF1 / RFU, LARP1B / Fold change vs veh, LARP1B / RFU, RASA1 / Fold change vs veh, RASA1 / RFU, RB1 / Fold change vs veh, RB1 / RFU, PPFIA1 / Fold change vs veh, PPFIA1 / RFU, MAT2A / Fold change vs veh, MAT2A / RFU, CCT5 / Fold change vs veh, CCT5 / RFU, WDR92 / Fold change vs veh, WDR92 / RFU, CUX1 / Fold change vs veh, CUX1 / RFU, TTC7A / Fold change vs veh, TTC7A / RFU, TMEM135 / Fold change vs veh, TMEM135 / RFU, DEPTOR / Fold change vs veh, DEPTOR / RFU, CPM / Fold change vs veh, CPM / RFU, DNAJB6 / Fold change vs veh, DNAJB6 / RFU, CACNA2D3 / Fold change vs veh, CACNA2D3 / RFU, DTX4 / Fold change vs veh, DTX4 / RFU, TFCP2 / Fold change vs veh, TFCP2 / RFU, GMCL1 /// GMCL1P1 / Fold change vs veh, GMCL1 /// GMCL1P1 / RFU, AEBP2 / Fold change vs veh, AEBP2 / RFU, SNHG1 /// SNORD22 /// SNORD25 /// SNORD26 /// SNORD27 /// SNORD28 /// SNORD29 /// SNORD31 / Fold change vs veh, SNHG1 /// SNORD22 /// SNORD25 /// SNORD26 /// SNORD27 /// SNORD28 /// SNORD29 /// SNORD31 / Fold change (Aza/veh), C12orf56 (ProbeSet 11735607_a_at) / Fold change (ACY-1035/veh), C12orf56 (ProbeSet 11735607_a_at) / Fold change (Aza/veh), FGFR1OP (ProbeSet 11751329_s_at) / Fold change (ACY-1035/veh), FGFR1OP (ProbeSet 11751329_s_at) / Fold change (Aza/veh), VPS36 (ProbeSet 11739960_a_at) / Fold change (ACY-1035/veh), VPS36 (ProbeSet 11739960_a_at) / RFU SYPL1 (11715823_x_at) / Fold change /veh SYPL1 (11715823_x_at) / RFU IGFBP7 (11715501_s_at) / Fold change /veh IGFBP7 (11715501_s_at) / RFU REEP3 (11722064_at) / Fold change /veh REEP3 (11722064_at) / RFU IGLL1 (11728026_x_at) / Fold change /veh IGLL1 (11728026_x_at): dose or concentration left out as unconfirmed
Settings: MV-4-11 cells, 48 hours

`Nc1ncn([C@@H]2O[C@H](CO)[C@@H](O)[C@H]2O)c(=O)n1` [azacitidine] was tested. Which “Fold change /veh RGS16 (11720944_at)” value did it give?
Its value is 1.54.
